Laboratory results as given in patent US20070049564A1 (Wyeth, priority 2005, published 2007).
In brackets after ≈: the same amount, converted by molar mass. Read-outs that look alike come from different tables or passages of the source.

Legend:
[1] = system: E. coli GC 2231; test: MIC, broth microdilution; settings: Escherichia coli
[2] = system: S. agalactiae GC 4564; test: MIC, broth microdilution; settings: Streptococcus agalactiae
[3] = system: E. coli GC 4559; test: MIC, broth microdilution; settings: Escherichia coli
[4] = system: E. coli GC 2234; test: MIC, broth microdilution; settings: Escherichia coli
[5] = system: Staph.; test: Range of MIC for Staph. strains, including MRSA; settings: Staphylococcus aureus
[6] = system: S. typhimurium GC 2172; test: MIC, broth microdilution; settings: Salmonella enterica, TYPHIMURIUM
[7] = system: S. pneumoniae* GC 4465; test: MIC, broth microdilution; settings: Streptococcus pneumoniae
[8] = system: S. aureus GC 4536; test: MIC, broth microdilution; settings: Staphylococcus aureus
[9] = system: Staph. aureus Smith; test: In vivo activity (oral, iv; ED50) against Staph. aureus Smith in mice
[10] = system: S. pneumoniae+ GC 4465; test: MIC, broth microdilution; settings: Streptococcus pneumoniae
[11] = system: E. faecium GC 4556; test: MIC, broth microdilution; settings: Enterococcus faecium
[12] = system: E. coli GC 2232; test: MIC, broth microdilution; settings: Escherichia coli
[13] = system: E. faecalis GC 2242; test: MIC, broth microdilution; settings: Enterococcus faecalis
[14] = system: S. aureus GC 2216; test: MIC, broth microdilution; settings: Staphylococcus aureus
[15] = system: S. pyogenes GC 4563; test: MIC, broth microdilution; settings: Streptococcus pyogenes
[16] = system: E. coli GC 2236; test: MIC, broth microdilution; settings: Escherichia coli
[17] = system: E. faecalis GC 4555; test: MIC, broth microdilution; settings: Enterococcus faecalis
[18] = system: S. aureus GC 6466; test: MIC, broth microdilution; settings: Staphylococcus aureus
[19] = system: E. coli; test: Range of MIC for E. coli strains; settings: Escherichia coli
[20] = system: E. coli GC 2235; test: MIC, broth microdilution; settings: Escherichia coli
[21] = read-out: MINIMAL INHIBITORY CONCENTRATION MIC, Human Serum
[22] = read-out: MINIMAL INHIBITORY CONCENTRATION MIC, Mouse Serum
[23] = read-out: MINIMAL INHIBITORY CONCENTRATION MIC, Water

- MIC ([1]; GC2231, read-out: MINIMAL INHIBITORY CONCENTRATION MIC, Human Serum): 8 µg/mL (≈ 10.4 µM)
- MIC ([1]; GC2231, read-out: MINIMAL INHIBITORY CONCENTRATION MIC, Mouse Serum): 1 µg/mL (≈ 1.3 µM)
- MIC ([1]; GC2231, read-out: MINIMAL INHIBITORY CONCENTRATION MIC, Water): 64 µg/mL (≈ 83.1 µM)
- MIC ([2]; GC4564, read-out: MINIMAL INHIBITORY CONCENTRATION MIC, Human Serum): 0.25 µg/mL (≈ 0.325 µM)
- MIC ([2]; GC4564, read-out: MINIMAL INHIBITORY CONCENTRATION MIC, Mouse Serum): 0.25 µg/mL (≈ 0.325 µM)
- MIC ([2]; GC4564, read-out: MINIMAL INHIBITORY CONCENTRATION MIC, Water): 0.25 µg/mL (≈ 0.325 µM)
- MIC ([3]; GC4559, read-out: MINIMAL INHIBITORY CONCENTRATION MIC, Human Serum): 16 µg/mL (≈ 20.8 µM)
- MIC ([3]; GC4559, read-out: MINIMAL INHIBITORY CONCENTRATION MIC, Mouse Serum): 2 µg/mL (≈ 2.6 µM)
- MIC ([3]; GC4559, read-out: MINIMAL INHIBITORY CONCENTRATION MIC, Water): 64 µg/mL (≈ 83.1 µM)
- MIC ([4]; GC2234, read-out: MINIMAL INHIBITORY CONCENTRATION MIC, Human Serum): 8 µg/mL (≈ 10.4 µM)
- MIC ([4]; GC2234, read-out: MINIMAL INHIBITORY CONCENTRATION MIC, Mouse Serum): 1 µg/mL (≈ 1.3 µM)
- MIC ([4]; GC2234, read-out: MINIMAL INHIBITORY CONCENTRATION MIC, Water): 64 µg/mL (≈ 83.1 µM)
- MIC ([5]; MRSA, read-out: Range of MIC, Staph (Mouse Serum)): 0.25 to 2 µg/mL (≈ 0.325 to 2.6 µM)
- MIC ([5]; MRSA, read-out: Range of MIC, Staph (Water)): 0.25 to 4 µg/mL (≈ 0.325 to 5.2 µM)
- MIC ([5]; read-out: Minimum inhibitory concentration (MIC), Staph (Human Serum)): 0.25 to 2 µg/mL (≈ 0.325 to 2.6 µM)
- MIC ([5]; read-out: Minimum inhibitory concentration (MIC), Staph (Water)): 0.25 to 4 µg/mL (≈ 0.325 to 5.2 µM)
- MIC [6, 21]: 32 µg/mL (≈ 41.6 µM)
- MIC [6, 22]: 4 µg/mL (≈ 5.2 µM)
- MIC [6, 23]: > 64 µg/mL
- MIC [7, 21]: < 0.06 µg/mL
- MIC [7, 22]: < 0.06 µg/mL
- MIC [7, 23]: < 0.06 µg/mL
- MIC ([8]; GC4536, read-out: MINIMAL INHIBITORY CONCENTRATION MIC, Human Serum): 0.25 µg/mL (≈ 0.325 µM)
- MIC ([8]; GC4536, read-out: MINIMAL INHIBITORY CONCENTRATION MIC, Mouse Serum): 0.25 µg/mL (≈ 0.325 µM)
- MIC ([8]; GC4536, read-out: MINIMAL INHIBITORY CONCENTRATION MIC, Water): 0.5 µg/mL (≈ 0.649 µM)
- MIC [10, 21]: 0.5 µg/mL (≈ 0.649 µM)
- MIC [10, 22]: 0.5 µg/mL (≈ 0.649 µM)
- MIC [10, 23]: 0.5 µg/mL (≈ 0.649 µM)
- MIC ([11]; GC4556, read-out: MINIMAL INHIBITORY CONCENTRATION MIC, Human Serum): 1 µg/mL (≈ 1.3 µM)
- MIC ([11]; GC4556, read-out: MINIMAL INHIBITORY CONCENTRATION MIC, Mouse Serum): 1 µg/mL (≈ 1.3 µM)
- MIC ([11]; GC4556, read-out: MINIMAL INHIBITORY CONCENTRATION MIC, Water): 2 µg/mL (≈ 2.6 µM)
- MIC ([12]; GC2232, read-out: MINIMAL INHIBITORY CONCENTRATION MIC, Human Serum): 8 µg/mL (≈ 10.4 µM)
- MIC ([12]; GC2232, read-out: MINIMAL INHIBITORY CONCENTRATION MIC, Mouse Serum): 1 µg/mL (≈ 1.3 µM)
- MIC ([12]; GC2232, read-out: MINIMAL INHIBITORY CONCENTRATION MIC, Water): 32 µg/mL (≈ 41.6 µM)
- MIC ([13]; GC2242, read-out: MINIMAL INHIBITORY CONCENTRATION MIC, Human Serum): 1 µg/mL (≈ 1.3 µM)
- MIC ([13]; GC2242, read-out: MINIMAL INHIBITORY CONCENTRATION MIC, Mouse Serum): 1 µg/mL (≈ 1.3 µM)
- MIC ([13]; GC2242, read-out: MINIMAL INHIBITORY CONCENTRATION MIC, Water): 2 µg/mL (≈ 2.6 µM)
- MIC ([14]; GC2216, read-out: MINIMAL INHIBITORY CONCENTRATION MIC, Human Serum): 0.5 µg/mL (≈ 0.649 µM)
- MIC ([14]; GC2216, read-out: MINIMAL INHIBITORY CONCENTRATION MIC, Mouse Serum): 1 µg/mL (≈ 1.3 µM)
- MIC ([14]; GC2216, read-out: MINIMAL INHIBITORY CONCENTRATION MIC, Water): 2 µg/mL (≈ 2.6 µM)
- MIC ([15]; GC4563, read-out: MINIMAL INHIBITORY CONCENTRATION MIC, Human Serum): 0.12 µg/mL (≈ 0.156 µM)
- MIC ([15]; GC4563, read-out: MINIMAL INHIBITORY CONCENTRATION MIC, Mouse Serum): 0.12 µg/mL (≈ 0.156 µM)
- MIC ([15]; GC4563, read-out: MINIMAL INHIBITORY CONCENTRATION MIC, Water): 0.25 µg/mL (≈ 0.325 µM)
- MIC ([16]; GC2236, read-out: MINIMAL INHIBITORY CONCENTRATION MIC, Human Serum): 8 µg/mL (≈ 10.4 µM)
- MIC ([16]; GC2236, read-out: MINIMAL INHIBITORY CONCENTRATION MIC, Mouse Serum): 1 µg/mL (≈ 1.3 µM)
- MIC ([16]; GC2236, read-out: MINIMAL INHIBITORY CONCENTRATION MIC, Water): 32 µg/mL (≈ 41.6 µM)
- MIC ([17]; GC4555, read-out: MINIMAL INHIBITORY CONCENTRATION MIC, Human Serum): 2 µg/mL (≈ 2.6 µM)
- MIC ([17]; GC4555, read-out: MINIMAL INHIBITORY CONCENTRATION MIC, Mouse Serum): 1 µg/mL (≈ 1.3 µM)
- MIC ([17]; GC4555, read-out: MINIMAL INHIBITORY CONCENTRATION MIC, Water): 4 µg/mL (≈ 5.2 µM)
- MIC ([18]; GC6466, read-out: MINIMAL INHIBITORY CONCENTRATION MIC, Human Serum): 0.25 µg/mL (≈ 0.325 µM)
- MIC ([18]; GC6466, read-out: MINIMAL INHIBITORY CONCENTRATION MIC, Mouse Serum): 0.25 µg/mL (≈ 0.325 µM)
- MIC ([18]; GC6466, read-out: MINIMAL INHIBITORY CONCENTRATION MIC, Water): 0.25 µg/mL (≈ 0.325 µM)
- MIC ([19]; 20 h, read-out: Range of MIC, E. coli (Mouse Serum)): 1 to 2 µg/mL (≈ 1.3 to 2.6 µM)
- MIC ([19]; read-out: Minimum inhibitory concentration (MIC), E. coli (Human Serum)): 4 to 16 µg/mL (≈ 5.2 to 20.8 µM)
- MIC ([19]; read-out: Minimum inhibitory concentration (MIC), E. coli (water)): 32 to 64 µg/mL (≈ 41.6 to 83.1 µM)
- MIC ([19]; read-out: Range of MIC, E. coli (Water)): 32 to 64 µg/mL (≈ 41.6 to 83.1 µM)
- MIC ([20]; GC2235, read-out: MINIMAL INHIBITORY CONCENTRATION MIC, Human Serum): 4 µg/mL (≈ 5.2 µM)
- MIC ([20]; GC2235, read-out: MINIMAL INHIBITORY CONCENTRATION MIC, Mouse Serum): 1 µg/mL (≈ 1.3 µM)
- MIC ([20]; GC2235, read-out: MINIMAL INHIBITORY CONCENTRATION MIC, Water): 32 µg/mL (≈ 41.6 µM)
SMILES: CN(C)c1cc(NC(=O)CN(C(=O)OCOC(=O)C2CCCCC2)C(C)(C)C)c(O)c2c1C[C@H]1C[C@H]3[C@H](N(C)C)C(O)=C(C(N)=O)C(=O)[C@@]3(O)C(O)=C1C2=O [Example 50, ({[(2-{[(5aR,6aS,7S,10aS)-9-(aminocarbonyl)-4,7-bis(dimethylamino)-1,8,10a,11-tetrahydroxy-10,12-dioxo-5,5a,6,6a,7,10,10a,12-octahydrotetracen-2-yl]amino}-2-oxoethyl)(tert-butyl)amino]carbonyl}oxy)methyl cyclohexanecarboxylate]
- ED50 ([9]; Staphylococcus aureus, in Mus musculus, iv, read-out: ED50 SIV (Staph aureus Smith)): 1.65 mg/kg
- ED50 ([9]; Staphylococcus aureus, in Mus musculus, po, read-out: ED50 SOD (Staph aureus Smith)): 16.9 mg/kg
- ED50 ([9]; Staphylococcus aureus, in Mus musculus, po, read-out: ED50 Staph Smith SOD): 16.9 mg/kg
- ED50 ([9]; iv, read-out: ED50 Staph Smith SIV): 1.65 mg/kg
